According to PMC5238392, “Origin of anti-tumor activity of the cysteine-containing GO peptides and further optimization of their cytotoxic properties” (Scientific Reports, 2017):

Legend:
Assay type in all cases: cell-based, human
[1] = system: HT-1080 cells; assay: FITC Annexin V / propidium iodide apoptosis assay, HT-1080; settings: 10 μM
Protocol: Already 2 h after administration of 10 μM dose, the system reaches a steady state with 18% of healthy cells, 17% of early apoptotic cells, and 58% of late apoptotic cells. It remains in this state for the entire period of observations, 24 h.
(§1) Figure 3 GO-203-induced apoptosis in HT-1080 and ZR-75-1 cells as assessed by FITC Annexin V (AnV) and propidium iodide (PI) double staining. (A–D) Flow cytometry histograms for the cells incubated for 4 h with 10 μM of GO-203 and the untreated (control) cells. (E–H) Apoptotic fractions in the GO-203-treated and untreated (control) cells as a function of incubation time and GO-203 concentration; color coding is explained in the legend. TEXT PRINTED IN THE PICTURE: (B) GO-203: HT-1080: IV.(1.90 %); HT-1080: III.(52.62 %); HT-1080: I.(19.45 %); HT-1080: II.(26.04 %) | (D) GO-203: ZR-75-1: IV.(8.19 %); ZR-75-1: III.(8.65 %); ZR-75-1: I.(37.84 %); ZR-75-1: II.(45.32 %)
(§2) The adherent cells were rinsed with PBS, harvested using trypsin-EDTA solution and suspended in the growth medium. To analyze cell cycle phase distribution, 200 μg/ml of saponin (Fluka, USA), 250 μg/ml RNase A, and 50 μg/ml of propidium iodide (both Sigma-Aldrich, USA) were added to each sample tube, thus obtaining DNA stain buffer. After 1 h incubation at room temperature, the samples were analyzed by flow cytometry. To detect apoptosis by flow cytometry, CellEvent Caspase-3/7 Green Flow Cytometry Assay Kit (Thermo Fisher Scientific, USA) and Annexin-V FITC conjugate (BD Biosciences, USA) in combination with propidium iodide have been employed following the manufacturer’s protocols.
(§3) Cell fluorescence was measured using CytoFLEX (Beckman Coulter, USA) flow cytometer equipped with 3 lasers (405, 488 and 633 nm). Cells were gated on FSC/SSC to remove debris. Mean fluorescence intensity from 10,000 cells was acquired.

[2] = system: HT-1080 cells; assay: Time-lapse microscopy and side angle light scatter, HT-1080
Protocol: The data from time-lapse microscopy on HT-1080 cells provide a visual evidence of GO-203-induced apoptosis, Fig. 5 (see also Film S1). […] After 1.5 h we observe the fully developed picture of apoptosis. This is illustrated in the right panel of Fig. 5: three cells in this photograph experience blebbing, while the fourth cell located in the upper right portion of the image has undergone detachment and rounded up (it is soon to enter the blebbing phase). This time line is confirmed by the side angle light scatter data from the flow-cytometry experiment, Fig. 6C. […] This behavior reflects the onset of dynamic blebbing and the concomitant increase in the roughness of the cell surface. In this context it is worth noting that actomyosin cortex contraction and blebbing are subsequent to (and in fact driven by) caspase activation. The condensation of nucleus and cytoplasm in apoptotic cells can also contribute to the increased side scatter.
Figure 5 Time-lapse microscopy of HT-1080 cells. (A) Cells before the addition of the peptide and (B) 1 h 20 min after the addition of 5 μM GO-203.
Figure 6 Dynamics of (A) mitochondrial membrane potential, (B) intracellular ROS levels, and (C) cell refractive properties in suspended HT-1080 cells following the addition of 5 μM GO-203.
The cells were seeded into 35-mm Nunc culture dishes (Thermo Scientific, USA) at 1.2 × 10^5 cells per dish and allowed to attach for 24 h. To monitor intracellular ROS in a time-dependent manner, the cells were incubated for 30 min with 10 μM of carboxy-H2DCFDA (Invitrogen, USA), then harvested with trypsin-EDTA and suspended in a fresh medium. After that GO-203 was added directly to the suspension and cell fluorescence was measured by flow cytometry at multiple time points during the following 2 hours. The same procedure was used for mitochondria-specific fluorescent dye Rhodamine 123 (Thermo Fisher Scientific, USA), which was added to a concentration of 5 μM. The complementary side scatter measurements were conducted using 488 nm laser light. In another series of experiments, we have used the related indicator of oxidative stress, H2DCFDA (Invitrogen, USA). The experiment started by adding GO-203 to the cell growth medium; then 10 min later 5 μM of H2DCFDA has been added. After 20 min incubations with H2DCFDA, the cells were harvested with trypsin-EDTA and suspended in a fresh medium. Cell fluorescence was then immediately measured by flow cytometry. The same procedure was followed for the ROS-insensitive (control) modification of the fluorescent probe, DCFDA.
For live cell microscopy, HT-1080 cells were seeded into 35-mm сell imaging dish with cover glass bottom (Eppendorf, Germany) and allowed to attach for 24 h. The cell response to 5 μM GO-203 exposure was monitored using the Axio Observer. […]

[3] = system: ZR-75-1 cells; assay: FITC Annexin V / propidium iodide apoptosis assay, ZR-75-1
Protocol: as §1
Similarly fast apoptotic process is observed in ZR-75-1, although this cell line is less susceptible to the cytotoxic effect of GO-203. 4 h after administration of 10 μM dose, 39% of the cells remain healthy, 43% undergo early apoptosis, and 9% are in the late apoptosis stage. This proportion remains unchanged after 24 h. The fact that GO-203-induced apoptosis occurs rapidly in both sensitive and relatively insensitive cell lines is relevant in the context of its cytotoxic mechanism (discussed later in the text).
Also illustrated in Fig. 3G,H is the dose-dependent response of the treated cells. […] It is possible that apoptotic ZR-75-1 cells in quadrant II undergo disintegration instead of moving to quadrant III, Fig. 3D. Importantly, the Annexin V data are consistent with the results of the MTS assay which registers limited damage to the ZR-75-1 cells, see Fig. 2.
as §2, §3

[4] = 4 h, representative plot Fig. 3B
[5] = HT-1080, 5 μM, time-lapse microscopy
[6] = 10 μM, 4 h, representative plot Fig. 3D
[7] = 10 μM, 4 h after administration

With “[R]9CQCRRKN [GO-203, in clinical trials]” the “early apoptotic cells (Annexin V/PI)” value ([1]; 2 h after administration) was 17%, the “late apoptotic cells (Annexin V/PI)” value ([1]; 2 h after administration) was 58% and the “healthy cells (Annexin V/PI)” value ([1]; 2 h after administration (steady state up to 24 h)) was 18%. The “quadrant I fraction (Annexin V/PI dot plot)” value [1, 4] was 19.45%, the “quadrant II fraction (Annexin V/PI dot plot)” value [1, 4] was 26.04% and the “quadrant III fraction (Annexin V/PI dot plot)” value [1, 4] was 52.62%. The “quadrant IV fraction (Annexin V/PI dot plot)” value [1, 4] was 1.90%, the “Time to fully developed picture of apoptosis” value [2, 5] was 1.5 h and the “Time to morphological features of apoptosis (cell contraction, membrane blebbing)” value [2, 5] was “within the first hour”. The “Time at which side angle light scatter starts to rise versus control” value ([2]; suspended HT-1080 cells, 5 μM, flow cytometry, 488 nm) was 30 min, the “Onset of apoptosis after application” value ([2]; treated cells, summary statement) was “ca. 30 min” and the “quadrant I fraction (Annexin V/PI dot plot)” value [3, 6] was 37.84%. For the same substance, the “quadrant II fraction (Annexin V/PI dot plot)” value [3, 6] was 45.32%, the “quadrant III fraction (Annexin V/PI dot plot)” value [3, 6] was 8.65% and the “quadrant IV fraction (Annexin V/PI dot plot)” value [3, 6] was 8.19%. For the same substance, the “early apoptosis (Annexin V/PI)” value [3, 7] was 43%, the “late apoptosis stage (Annexin V/PI)” value [3, 7] was 9% and the “healthy cells (Annexin V/PI)” value ([3]; 10 μM, 4 h after administration (unchanged after 24 h)) was 39%. For the same substance, the “viable cells at highest dose (Annexin V/PI)” value ([3]; 20 μM) was “a large proportion of the cells remains viable”.
